Data from ChEMBL document CHEMBL1201862, “PubChem BioAssay data set” (2004).
Active and inactive are the calls of the source.

Experiments:
[1] = biological target: T1, Zinc finger protein mex-5 (Caenorhabditis elegans, UniProt Q9XUB2); test: potency of MEX-5 RNA-binding blockers – biochemical, C. elegans, fluorescence polarization, dose response (AID 1960)
T1 sequence (Q9XUB2 whole entry): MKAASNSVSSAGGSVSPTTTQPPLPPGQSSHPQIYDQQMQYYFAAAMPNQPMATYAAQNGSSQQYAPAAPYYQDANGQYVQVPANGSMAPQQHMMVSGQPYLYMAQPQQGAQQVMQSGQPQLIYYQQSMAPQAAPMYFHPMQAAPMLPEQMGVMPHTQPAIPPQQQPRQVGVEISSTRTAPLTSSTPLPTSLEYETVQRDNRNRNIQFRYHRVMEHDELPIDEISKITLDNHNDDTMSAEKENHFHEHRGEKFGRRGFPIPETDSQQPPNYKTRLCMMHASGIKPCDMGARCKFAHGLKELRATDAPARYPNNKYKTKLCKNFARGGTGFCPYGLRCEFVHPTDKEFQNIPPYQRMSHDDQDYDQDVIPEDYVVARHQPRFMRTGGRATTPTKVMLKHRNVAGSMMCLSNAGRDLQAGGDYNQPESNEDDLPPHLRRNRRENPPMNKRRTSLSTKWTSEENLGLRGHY

[2] = biological target: T2, Sentrin-specific protease 8 (Homo sapiens, UniProt Q96LD8); assay type: functional;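 also: luminescence read-out of SENP8 inhibition, dose-response confirmation following an ultra-high-throughput screen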
T2 sequence (Q96LD8 whole entry): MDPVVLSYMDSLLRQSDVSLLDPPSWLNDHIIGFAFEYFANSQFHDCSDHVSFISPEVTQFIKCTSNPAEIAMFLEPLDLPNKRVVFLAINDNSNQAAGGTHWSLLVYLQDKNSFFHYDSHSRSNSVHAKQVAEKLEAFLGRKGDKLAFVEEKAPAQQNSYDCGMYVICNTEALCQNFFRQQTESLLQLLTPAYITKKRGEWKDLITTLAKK

[3] = Luminescence-based counterscreen assay for KLF5 inhibitors: dose response cell-based high throughput screening assay to identify cytotoxic compounds using the IEC-6 intestinal epithelial cell line. [Related pubchem assays: 1700 (Primary screen.), 1834 (Confirmation screen.), 1858 (Summary AID.), 1905 (Counterscreen.)]; assay type: functional
[4] = biological target: Serine/threonine-protein phosphatase PP1-alpha catalytic subunit (Homo sapiens, UniProt P62136); test: inhibition of protein phosphatase 1 activity – biochemical, fluorescence, dose response (AID 2394)
[5] = biological target: T3, Microphthalmia-associated transcription factor (Homo sapiens, UniProt O75030); test: reducers of TRPM1 reporter luminescence, concentration series – cell-based, SK-MEL-5, cherry-picked, set 3, MITF inhibitor project, dose response (AID 493073); assay type: functional;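 also: SK-MEL-5 melanoma cells with luciferase driven by the MITF target TRPM1 promoter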
T3 sequence (O75030 whole entry): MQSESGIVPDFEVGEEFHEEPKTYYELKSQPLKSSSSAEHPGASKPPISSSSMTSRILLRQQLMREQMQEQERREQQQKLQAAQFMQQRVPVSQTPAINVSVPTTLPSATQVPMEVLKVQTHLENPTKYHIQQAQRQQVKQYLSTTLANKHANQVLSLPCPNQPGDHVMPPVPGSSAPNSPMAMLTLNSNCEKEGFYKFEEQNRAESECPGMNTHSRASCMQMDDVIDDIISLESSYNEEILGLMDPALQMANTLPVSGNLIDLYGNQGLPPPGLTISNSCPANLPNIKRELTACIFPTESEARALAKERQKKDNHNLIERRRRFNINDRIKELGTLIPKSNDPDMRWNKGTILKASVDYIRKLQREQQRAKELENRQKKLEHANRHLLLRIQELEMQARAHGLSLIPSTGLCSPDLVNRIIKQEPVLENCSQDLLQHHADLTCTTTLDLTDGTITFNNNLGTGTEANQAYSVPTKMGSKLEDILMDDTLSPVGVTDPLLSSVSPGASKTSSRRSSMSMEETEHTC

Protein RecA = biological target: T4, Protein RecA (Mycobacterium tuberculosis, UniProt P9WHJ3); test: Fluorescence Cell-Free Homogeneous Dose Retest to Identify Inhibitors of RecA-Intein Splicing Activity. [Related pubchem assays (depositor defined):AID2097, AID2223, AID489010, AID492950]; assay type: functional
T4 sequence (P9WHJ3 whole entry): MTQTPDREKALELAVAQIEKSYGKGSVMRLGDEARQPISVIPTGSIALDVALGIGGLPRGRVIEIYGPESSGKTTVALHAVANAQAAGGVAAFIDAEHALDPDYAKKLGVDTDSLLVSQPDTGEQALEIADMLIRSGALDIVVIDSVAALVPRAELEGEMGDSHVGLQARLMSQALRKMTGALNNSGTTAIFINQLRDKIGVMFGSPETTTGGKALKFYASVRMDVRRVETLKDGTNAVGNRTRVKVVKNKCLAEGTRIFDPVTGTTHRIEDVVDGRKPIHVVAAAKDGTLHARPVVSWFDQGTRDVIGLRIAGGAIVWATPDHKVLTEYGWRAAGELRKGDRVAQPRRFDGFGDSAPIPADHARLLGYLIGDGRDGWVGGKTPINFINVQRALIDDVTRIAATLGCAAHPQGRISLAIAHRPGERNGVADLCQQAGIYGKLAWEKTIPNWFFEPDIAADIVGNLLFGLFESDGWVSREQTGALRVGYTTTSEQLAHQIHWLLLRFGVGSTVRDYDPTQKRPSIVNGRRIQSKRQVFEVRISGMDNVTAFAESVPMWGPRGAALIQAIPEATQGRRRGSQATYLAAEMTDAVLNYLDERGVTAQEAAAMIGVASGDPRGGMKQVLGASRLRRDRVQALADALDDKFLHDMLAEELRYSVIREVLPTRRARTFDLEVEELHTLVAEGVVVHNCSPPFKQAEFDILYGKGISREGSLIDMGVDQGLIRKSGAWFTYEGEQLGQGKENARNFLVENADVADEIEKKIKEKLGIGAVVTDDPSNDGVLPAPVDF

[6] = biological target: Tyrosyl-DNA phosphodiesterase 2 (Homo sapiens, UniProt O95551); test: potency against TDP2 phosphodiesterase activity – biochemical, epi absorbance, IC50, dose response (AID 743297)
[7] = biological target: Serine/threonine-protein phosphatase (Homo sapiens, UniProt Q9BPW0); test: inhibition of protein phosphatase 5 activity – biochemical, fluorescence, dose response (AID 2395)
Sequence of Serine/threonine-protein phosphatase (Q9BPW0 whole entry): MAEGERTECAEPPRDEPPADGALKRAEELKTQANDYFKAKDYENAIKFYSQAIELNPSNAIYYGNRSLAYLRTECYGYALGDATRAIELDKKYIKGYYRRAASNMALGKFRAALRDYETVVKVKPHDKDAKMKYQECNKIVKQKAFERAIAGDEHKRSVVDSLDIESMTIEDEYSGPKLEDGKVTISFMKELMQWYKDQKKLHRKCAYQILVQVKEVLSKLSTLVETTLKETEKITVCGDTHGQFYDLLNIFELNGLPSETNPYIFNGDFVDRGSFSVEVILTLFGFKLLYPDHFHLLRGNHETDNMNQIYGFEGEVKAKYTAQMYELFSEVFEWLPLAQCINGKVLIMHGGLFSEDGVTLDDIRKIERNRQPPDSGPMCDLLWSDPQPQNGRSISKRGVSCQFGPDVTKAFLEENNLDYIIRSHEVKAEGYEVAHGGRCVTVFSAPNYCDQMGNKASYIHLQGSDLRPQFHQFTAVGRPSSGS

Sequence of Tyrosyl-DNA phosphodiesterase 2 (O95551 whole entry): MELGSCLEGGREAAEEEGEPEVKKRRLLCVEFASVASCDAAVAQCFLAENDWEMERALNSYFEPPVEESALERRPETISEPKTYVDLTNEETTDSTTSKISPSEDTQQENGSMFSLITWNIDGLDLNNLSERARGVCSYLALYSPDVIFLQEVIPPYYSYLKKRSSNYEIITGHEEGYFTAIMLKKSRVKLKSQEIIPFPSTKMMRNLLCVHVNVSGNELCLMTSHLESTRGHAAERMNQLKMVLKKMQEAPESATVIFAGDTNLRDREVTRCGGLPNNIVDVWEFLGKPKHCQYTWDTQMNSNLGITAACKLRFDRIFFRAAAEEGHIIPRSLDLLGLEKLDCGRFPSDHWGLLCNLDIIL
Sequence of Serine/threonine-protein phosphatase PP1-alpha catalytic subunit (P62136 whole entry): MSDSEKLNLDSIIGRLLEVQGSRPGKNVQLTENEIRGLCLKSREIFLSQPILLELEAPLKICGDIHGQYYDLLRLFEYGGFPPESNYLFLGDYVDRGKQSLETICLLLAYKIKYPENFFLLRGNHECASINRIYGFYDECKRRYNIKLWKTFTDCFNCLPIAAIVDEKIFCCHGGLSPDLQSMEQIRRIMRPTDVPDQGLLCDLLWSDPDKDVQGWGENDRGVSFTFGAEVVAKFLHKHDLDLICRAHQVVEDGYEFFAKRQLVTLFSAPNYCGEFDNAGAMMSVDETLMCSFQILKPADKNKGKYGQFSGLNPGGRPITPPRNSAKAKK

SMILES	EC50 [1]	IC50 [2]	IC50 [3]	IC50 [4]	AC50 [5]	EC50 (Protein RecA)	IC50 [6]	IC50 [7]
Oc1[nH]c2ccccc2c1N=Nc1ccc(F)cc1	> 300 µM (inconclusive)	3.07 µM (active)						
O=C1C(Nc2ccccc2)=C(N2CCCCC2)C(=O)c2ccccc21			> 39.8 µM (not active)	> 67 µM (not active)	6.67 µM (active)	2.21 µM (active)	> 128 µM (inactive)	> 67 µM (not active)
